16 compounds from PubChem BioAssay AID282 (DTP/NCI, 2004) can be followed below.

“And” between values parts separate entries of the source, which are not always exact repeats. Equal entries are not always repeated. Toxic doses and inconclusive results are not listed.

In the assay the test system is BDF1 mice, L1210 terephthalanilide-resistant leukemia ip, survival T/C. In words: NCI In Vivo Anticancer Drug Screen. Data for tumor model L1210 Leukemia resistant to A Terephthalanilide; NSC 38280 (intraperitoneal) in B6D2F1 (BDF1) mice. To be noted: endpoint: mean survival time, higher = longer survival. As for the experimental part:
The antitumor activity of compounds was measured in mice bearing transplantable tumors. Survival or tumor size were measured and the results are expressed as the measurement made in the treated group (T) divided by the measurement made in the vehicle treated control group (C). The tumor model used in this assay is L1210 Leukemia resistant to A Terephthalanilide; NSC 38280 (intraperitoneal) in B6D2F1 (BDF1) mice

The mark [1] stands for this setting: dose: 500.0 mg/kg/injection, schedule: Q01DX Z (ip), vehicle: carboxymethylcellulose (CMC).
Setting [2] is: dose: 10.0 mg/kg/injection, schedule: Q01DX Z (ip), vehicle: carboxymethylcellulose (CMC).
The mark [3] stands for this setting: dose: 0.5 mg/kg/injection, schedule: Q01DX010 (ip), vehicle: saline.

With `O=P1(N(CCCl)CCCl)NCCCO1` (configuration not stated), the T/C is, setting by setting: (dose: 5.0 mg/kg/injection, schedule: Q01DX Z (ip), vehicle: saline) 102 % of control; (dose: 10.0 mg/kg/injection, schedule: Q01DX Z (ip), vehicle: saline) 124 % of control; (dose: 15.0 mg/kg/injection, schedule: Q01DX Z (ip), vehicle: saline) 122 % of control; (dose: 25.0 mg/kg/injection, schedule: Q01DX Z (ip), vehicle: saline) 160 % of control; (dose: 37.5 mg/kg/injection, schedule: Q01DX Z (ip), vehicle: saline) 200 % of control; (dose: 50.0 mg/kg/injection, schedule: Q01DX Z (ip), vehicle: saline) 166 % of control and 239 % of control. Further, the T/C was 102 % of control (dose: 75.0 mg/kg/injection, schedule: Q01DX Z (ip), vehicle: saline) and 100 % of control (dose: 200.0 mg/kg/injection, schedule: Q01DX Z (ip), vehicle: saline).

Turning to `CN(C)/N=N/c1nc[nH]c1C(N)=O`, the T/C is, setting by setting: (dose: 25.0 mg/kg/injection, schedule: Q01DX010 (ip), vehicle: saline) 123 % of control and 101 % of control; (dose: 50.0 mg/kg/injection, schedule: Q01DX010 (ip), vehicle: saline) 114 % of control; (dose: 200.0 mg/kg/injection, schedule: Q01DX010 (ip), vehicle: saline) 102 % of control.

With `O=C(Nc1ccc(C2=NCCCN2)cc1)c1ccc(NC(=O)c2ccc(C3=NCCCN3)cc2)cc1`, the T/C runs as follows: (dose: 2.0 mg/kg/injection, schedule: Q01DX010 (ip), vehicle: other) 110 % of control and 112 % of control; (dose: 4.0 mg/kg/injection, schedule: Q01DX010 (ip), vehicle: other) 123 % of control; (dose: 8.0 mg/kg/injection, schedule: Q01DX010 (ip), vehicle: other) 102 % of control.

For `CC(=O)OCC1OC(n2ncc(=O)[nH]c2=O)C(OC(C)=O)C1OC(C)=O` (configuration not stated), the T/C by setting is: (dose: 125.0 mg/kg/injection, schedule: Q01DX Z (ip), vehicle: carboxymethylcellulose (CMC)) 183 % of control; (dose: 250.0 mg/kg/injection, schedule: Q01DX Z (ip), vehicle: carboxymethylcellulose (CMC)) 206 % of control; (dose: 375.0 mg/kg/injection, schedule: Q01DX Z (ip), vehicle: carboxymethylcellulose (CMC)) 214 % of control; under setting [1], 168 % of control.

Turning to `O=C(Nc1cccc(C(=O)Nc2ccc(C3=NCCN3)cc2)c1)c1ccc(C2=NCCN2)cc1`, for the setting “dose: 54.0 mg/kg/injection, schedule: Q01DX010 (ip), vehicle: saline”, the T/C is 90 % of control.

For the compound `O=C(Nc1ccc(C2=NCCN2)cc1)c1ccc(C(=O)Nc2ccc(C3=NCCN3)cc2)c(F)c1`, the T/C is, setting by setting: (dose: 22.5 mg/kg/injection, schedule: Q01DX010 (ip), vehicle: saline) 100 % of control and 101 % of control; (dose: 45.0 mg/kg/injection, schedule: Q01DX010 (ip), vehicle: saline) 101 % of control and 102 % of control; (dose: 90.0 mg/kg/injection, schedule: Q01DX010 (ip), vehicle: saline) 103 % of control and 106 % of control; (dose: 180.0 mg/kg/injection, schedule: Q01DX010 (ip), vehicle: saline) 100 % of control.

Consider `O=c1[nH]c(=O)n(C2CC(O)C(CO)O2)cc1I` (configuration not stated), for which the T/C under setting [1] was 151 % of control.

Regarding `Cn1cnc([N+](=O)[O-])c1Sc1nc(N)nc2nc[nH]c12`, the T/C by setting is: (dose: 0.5 mg/kg/injection, schedule: Q01DX Z (ip), vehicle: carboxymethylcellulose (CMC)) 117 % of control; (dose: 2.0 mg/kg/injection, schedule: Q01DX Z (ip), vehicle: carboxymethylcellulose (CMC)) 191 % of control; (dose: 3.75 mg/kg/injection, schedule: Q01DX Z (ip), vehicle: carboxymethylcellulose (CMC)) 170 % of control; under setting [2], 120 % of control.

`C1CN1c1nc(N2CC2)nc(N2CC2)n1`: the T/C is 108 % of control (dose: 0.13 mg/kg/injection, schedule: Q01DX010 (ip), vehicle: saline); 99 % of control (dose: 0.25 mg/kg/injection, schedule: Q01DX010 (ip), vehicle: saline); 104 % of control under setting [3].

For `NC(Cc1c[nH]c2ccc(N(CCCl)CCCl)cc12)C(=O)O` (configuration not stated), the T/C is 117 % of control under setting [3]; 108 % of control (dose: 1.0 mg/kg/injection, schedule: Q01DX010 (ip), vehicle: saline); 120 % of control (dose: 2.0 mg/kg/injection, schedule: Q01DX010 (ip), vehicle: saline); 233 % of control (dose: 4.0 mg/kg/injection, schedule: Q01DX010 (ip), vehicle: saline).

With `Nc1nc(F)nc2c1ncn2C1OC(CO)C(O)C1O` (configuration not stated), the T/C is, setting by setting: (dose: 0.75 mg/kg/injection, schedule: Q01DX Z (ip), vehicle: saline) 111 % of control; (dose: 1.5 mg/kg/injection, schedule: Q01DX Z (ip), vehicle: saline) 108 % of control; (dose: 3.0 mg/kg/injection, schedule: Q01DX Z (ip), vehicle: saline) 114 % of control; (dose: 6.0 mg/kg/injection, schedule: Q01DX Z (ip), vehicle: saline) 101 % of control.

For `N=C(N)c1ccc(Nc2ccc(C(=N)N)cc2)cc1`, the T/C runs as follows: (dose: 3.0 mg/kg/injection, schedule: Q01DX010 (ip), vehicle: saline) 94 % of control; (dose: 6.0 mg/kg/injection, schedule: Q01DX010 (ip), vehicle: saline) 91 % of control; (dose: 7.5 mg/kg/injection, schedule: Q01DX Z (ip), vehicle: water) 95 % of control; (dose: 10.0 mg/kg/injection, schedule: Q01DX Z (ip), vehicle: water) 95 % of control; (dose: 12.0 mg/kg/injection, schedule: Q01DX010 (ip), vehicle: saline) 95 % of control; (dose: 15.0 mg/kg/injection, schedule: Q01DX Z (ip), vehicle: water) 95 % of control. In addition, under “dose: 20.0 mg/kg/injection, schedule: Q01DX Z (ip), vehicle: water”, the T/C was 103 % of control.

As to `C[N+](C)(C)c1ncnc2nc[nH]c12`, the T/C runs as follows: (dose: 15.0 mg/kg/injection, schedule: Q01DX010 (ip), vehicle: saline) 92 % of control; (dose: 30.0 mg/kg/injection, schedule: Q01DX010 (ip), vehicle: saline) 110 % of control; (dose: 37.0 mg/kg/injection, schedule: Q01DX Z (ip), vehicle: saline) 102 % of control.

For the compound `S=c1nc[nH]c2nc[nH]c12`, the T/C reads like this: (dose: 2.5 mg/kg/injection, schedule: Q01DX Z (ip), vehicle: carboxymethylcellulose (CMC)) 120 % of control; (dose: 7.5 mg/kg/injection, schedule: Q01DX Z (ip), vehicle: carboxymethylcellulose (CMC)) 165 % of control; under setting [2], 172 % of control; (dose: 12.5 mg/kg/injection, schedule: Q01DX Z (ip), vehicle: carboxymethylcellulose (CMC)) 156 % of control; (dose: 25.0 mg/kg/injection, schedule: Q01DX Z (ip), vehicle: carboxymethylcellulose (CMC)) 152 % of control; (dose: 62.5 mg/kg/injection, schedule: Q01DX Z (ip), vehicle: carboxymethylcellulose (CMC)) 120 % of control. In addition, the T/C (dose: 100.0 mg/kg/injection, schedule: Q01DX Z (ip), vehicle: carboxymethylcellulose (CMC)) was 107 % of control.

Turning to `CC(=O)O[C@]1(C(C)=O)CC[C@H]2[C@@H]3C[C@H](C)C4=CC(=O)C=C[C@]4(C)[C@@]3(F)[C@@H](O)C[C@@]21C`, the T/C runs as follows: (dose: 12.5 mg/kg/injection, schedule: Q01DX010 (sc), vehicle: steriod suspending solution) 102 % of control; (dose: 25.0 mg/kg/injection, schedule: Q01DX010 (sc), vehicle: steriod suspending solution) 98 % of control; (dose: 50.0 mg/kg/injection, schedule: Q01DX010 (sc), vehicle: steriod suspending solution) 98 % of control; (dose: 50.0 mg/kg/injection, schedule: Q01DX Z (sc), vehicle: steriod suspending solution) 102 % of control; (dose: 75.0 mg/kg/injection, schedule: Q01DX Z (sc), vehicle: steriod suspending solution) 104 % of control; (dose: 100.0 mg/kg/injection, schedule: Q01DX010 (sc), vehicle: steriod suspending solution) 91 % of control. Also, the T/C is, setting by setting: (dose: 100.0 mg/kg/injection, schedule: Q01DX Z (sc), vehicle: steriod suspending solution) 102 % of control; (dose: 150.0 mg/kg/injection, schedule: Q01DX Z (sc), vehicle: steriod suspending solution) 102 % of control.

Turning to `CCCCNc1ncnc2c1cnn2C`, the T/C was 100 % of control (dose: 31.3 mg/kg/injection, schedule: Q01DX010 (ip), vehicle: saline); 105 % of control and 108 % of control (dose: 62.5 mg/kg/injection, schedule: Q01DX010 (ip), vehicle: saline); 89 % of control (dose: 125.0 mg/kg/injection, schedule: Q01DX010 (ip), vehicle: saline).
